From patent publication US20140377340A1, “HLA-DR BINDING PEPTIDES AND THEIR USES” (priority 2007, published 2014)

Tests used:
[1] = biological target: T1, purified HLA DRB1*0701 (Homo sapiens, UniProt P01903+P01911, A100R/A102G/A103Q/D57E/D86V/E43K/F76Y/K127E/L162R/M171V/P40G/Q125H/Q99D/R33Q/R42Y/R54Q/S133A/S66F/T210M/V115G/Y107V/Y59L/Y89S); test: HLA-DR radioligand binding inhibition assay, DRB1*0701; settings: IC50 nM purified HLA DRB1 *0701, purified HLA DRB1*0701
T1 construct: purified from EBV transformed homozygous cell lines or single MHC allele transfected 721.221, C1R, or fibroblast lines; made in house
Method: (§1) Instead, wells of an opaque white 96-well Optiplate (Packard) are coated with 3 μg (100 μl@ 30 μg/ml) of HLA-specific antibody (Ab) that “capture” complexes of radiolabeled MHC and unlabeled peptide transferred from the molecular binding assay plate in 100 μl of 0.05% NP40/PBS. After a 3-hour incubation period, the supernatant is decanted and scintillation fluid (Microscint 20) added. Captured complexes are then measured on a microplate scintillation and luminescence counter (TopCount NXTTM; Packard).
(§2) HLA-DR purification. Fifteen distinct HLA-DR molecules were used in quantitative assays to measure the binding of peptides to solubilized HLA-DR molecules. […] Briefly, columns of inactivated Sepharose CL4B and Protein A Sepharose were used as pre-columns. HLA-DR molecules were captured by passage of lysates over LB3.1 monoclonal antibody (anti-HLA-DRA) columns. Antibody columns were washed with 10 mM Tris-HCL, pH8.0 with 1% (v/v) NP-40, followed by PBS containing 0.4% (w/v) n-octylglucoside.
(§3) Briefly, 1-10 nM of radiolabeled peptide was co-incubated for 2 days at either room temperature or 37° C. with 1 μM to 1 nM purified HLA-DR molecules in the presence of a cocktail of protease inhibitors. Assays were performed at various pH conditions, ranging from pH 4 to pH 7. […] After incubation, the percentage of HLA-DR-bound radioactivity is determined by capturing HLA-DR/peptide complexes on Optiplates (Packard Instruments, Meriden, Conn.) coated with the LB3.1 antibody and determining bound counts per minute using the TopCount microscintillation counter (Packard Instruments).

[2] = biological target: T2, purified HLA DRB4*0101 (Homo sapiens, UniProt P01903+P13762, G164S); test: HLA-DR radioligand binding inhibition assay, DRB4*0101; settings: IC50 nM purified HLA DRB4 *0101, purified HLA DRB4*0101
T2 construct: purified from EBV transformed homozygous cell lines or single MHC allele transfected 721.221, C1R, or fibroblast lines; made in house
Method: as §1, §2, §3

[3] = biological target: T3, purified HLA DRB1*1501 (Homo sapiens, UniProt P01903+P01911); test: HLA-DR radioligand binding inhibition assay, DRB1*1501
T3 construct: purified from EBV transformed homozygous cell lines or single MHC allele transfected 721.221, C1R, or fibroblast lines; made in house
Method: as §1, §2, §3

[4] = biological target: T4, purified HLA DRB1*0401 (Homo sapiens, UniProt P01903+P01911, A100K/A169T/F76Y/I96L/K127E/L162R/M171V/N62H/P40V/Q125Y/R42H/S133A/S149N/S66Y/V115G/V209L/W38E); test: HLA-DR radioligand binding inhibition assay, DRB1*0401; settings: IC50 nM purified HLA DRB1 *0401, purified HLA DRB1*0401
T4 construct: purified from EBV transformed homozygous cell lines or single MHC allele transfected 721.221, C1R, or fibroblast lines; made in house
In short: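 The probe, 1-10 nM radiolabeled peptide, was incubated with 1 μM to 1 nM HLA-DR for 2 days in the presence of protease inhibitors.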

[5] = biological target: T5, purified HLA DRB1*0101 (Homo sapiens, UniProt P01903+P01911, A100R/D57E/F55L/F60I/F76Y/I96L/L162R/M171V/P40L/Q125E/R42F/V115G/Y59C); test: HLA-DR radioligand binding inhibition assay, DRB1*0101; settings: IC50 nM purified HLA DRB1 *0101, purified HLA DRB1*0101
T5 construct: purified from EBV transformed homozygous cell lines or single MHC allele transfected 721.221, C1R, or fibroblast lines; made in house
Method: as §1, §2, §3

[6] = tested on: 15 different HLA-DR molecules; test: HLA-DR binding assays, panel of 15 different HLA-DR molecules (breadth of binding); settings: number of the 15 HLA-DR molecules bound (binders: 1000 nM or better)
[7] = biological target: T6, purified HLA DRB1*1302 (Homo sapiens, UniProt P01903+P01911, A100E/A169T/K41T/L162R/M171V/P40S/Q125H/Q178H/Q39Y/Q99D/R42S/S66N/T262R/V115G/W38E/Y61H); test: HLA-DR radioligand binding inhibition assay, DRB1*1302
T6 construct: purified from EBV transformed homozygous cell lines or single MHC allele transfected 721.221, C1R, or fibroblast lines; made in house
Method: as §1, §2, §3

[8] = biological target: T7, purified HLA DRB5*0101 (Homo sapiens, UniProt P01903+Q30154); test: HLA-DR radioligand binding inhibition assay, DRB5*0101; settings: IC50 nM purified HLA DRB5 *0101, purified HLA DRB5*0101
T7 construct: purified from EBV transformed homozygous cell lines or single MHC allele transfected 721.221, C1R, or fibroblast lines; made in house
Method: as §1, §2, §3

[9] = biological target: T8, purified HLA DRB1*1101 (Homo sapiens, UniProt P01903+P01911, A100R/A169T/A87E/I96F/K41T/L162R/M171V/P40S/Q125H/Q178H/Q39Y/Q99D/R42S/S66Y/T262R/V115G/W38E); test: HLA-DR radioligand binding inhibition assay, DRB1*1101; settings: IC50 nM purified HLA DRB1 *1101, purified HLA DRB1*1101
T8 construct: purified from EBV transformed homozygous cell lines or single MHC allele transfected 721.221, C1R, or fibroblast lines; made in house
T8 sequence (P01903 26-254, other chains not shown): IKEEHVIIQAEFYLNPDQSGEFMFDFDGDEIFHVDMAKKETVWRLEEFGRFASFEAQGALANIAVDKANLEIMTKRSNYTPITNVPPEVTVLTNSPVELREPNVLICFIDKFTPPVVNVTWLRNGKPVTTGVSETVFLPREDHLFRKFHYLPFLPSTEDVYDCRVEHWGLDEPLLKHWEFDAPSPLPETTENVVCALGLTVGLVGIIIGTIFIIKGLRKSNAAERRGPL
Method: as §1, §2, §3

SMILES | IC50 [1] [nM] | IC50 [2] [nM] | IC50 [4] [nM] | Total XRN [6] | IC50 [7] [nM] | IC50 [8] [nM] | other results
CC(C)C[C@H](NC(=O)[C@H](CCCNC(=N)N)NC(=O)[C@H](CCC(=O)O)NC(=O)[C@@H]1CCCN1)C(=O)N[C@@H](C)C(=O)N[C@@H](C)C(=O)N[C@@H](CS)C(=O)NCC(=O)N1CCC[C@H]1C(=O)N1CCC[C@H]1C(=O)N1CCC[C@H]1C(=O)N[C@H](C(=O)N[C@@H](C)C(=O)N1CCC[C@H]1C(=O)N1CCC[C@H]1C(=O)O)C(C)C [Peptide 9019.0179] | > 20000 | 4460 | 5550 | – | – | – | IC50 [3]: 4050 nM; IC50 [5]: 28 nM
CC[C@H](C)[C@H](NC(=O)[C@H](CCCNC(=N)N)NC(=O)CNC(=O)[C@H](CCCNC(=N)N)NC(=O)[C@@H](NC(=O)[C@@H](NC(=O)[C@H](CCC(N)=O)NC(=O)[C@H](CC(C)C)NC(=O)[C@H](CC(N)=O)NC(=O)[C@H](CCC(N)=O)NC(=O)[C@H](Cc1ccccc1)NC(=O)[C@@H](NC(=O)[C@H](CO)NC(=O)[C@@H](N)CC(C)C)C(C)C)C(C)C)[C@@H](C)CC)C(=O)N[C@@H](CC(C)C)C(=O)O [Peptide 9019.0052] | – | – | – | 14 | – | – | –
CSCC[C@H](NC(=O)[C@H](CCC(N)=O)NC(=O)[C@H](CC(C)C)NC(=O)[C@H](CC(C)C)NC(=O)[C@H](CCC(=O)O)NC(=O)[C@H](CCC(=O)O)NC(=O)[C@@H]1CCCN1)C(=O)N[C@@H](CCC(=O)O)C(=O)N[C@@H](CC(C)C)C(=O)N[C@@H](CC(C)C)C(=O)N[C@@H](CC(C)C)C(=O)N[C@H](C(=O)N[C@@H](CC(N)=O)C(=O)N[C@@H](CCCCN)C(=O)N[C@@H](CC(C)C)C(=O)O)C(C)C [Peptide 9019.0161] | – | 11 | – | – | 44 | 2800 | –
CC[C@H](C)[C@H](NC(=O)[C@H](CCCNC(=N)N)NC(=O)[C@H](CCC(=O)O)NC(=O)[C@H](CC(C)C)NC(=O)[C@@H](NC(=O)[C@H](CCC(N)=O)NC(=O)[C@H](CC(=O)O)NC(=O)[C@@H](N)CC(C)C)C(C)C)C(=O)N[C@@H](CO)C(=O)N[C@H](C(=O)N[C@@H](CCSC)C(=O)N[C@@H](CCCNC(=N)N)C(=O)N[C@@H](CC(C)C)C(=O)N1CCC[C@H]1C(=O)N[C@@H](CC(=O)O)C(=O)O)[C@@H](C)O [Peptide 9019.0189] | – | – | – | 12 | – | – | –
CC[C@H](C)[C@H](NC(=O)[C@@H](NC(=O)[C@H](CO)NC(=O)[C@H](CC(=O)O)NC(=O)[C@@H](N)CO)C(C)C)C(=O)N[C@@H](CC(C)C)C(=O)N[C@@H](CC(N)=O)C(=O)N[C@H](C(=O)N[C@@H](CC(C)C)C(=O)N[C@@H](Cc1ccc(O)cc1)C(=O)NCC(=O)N1CCC[C@H]1C(=O)N[C@@H](CC(=O)O)C(=O)N[C@@H](C)C(=O)N1CCC[C@H]1C(=O)O)C(C)C [Peptide 9019.0119] | 5240 | 612 | 255 | – | 83 | > 20000 | IC50 [9]: 9210 nM
CC(C)C[C@H](NC(=O)[C@@H]1CCCN1C(=O)[C@H](CC(C)C)NC(=O)[C@H](CC(C)C)NC(=O)[C@@H]1CCCN1C(=O)[C@H](CC(C)C)NC(=O)[C@H](CC(C)C)NC(=O)[C@@H]1CCCN1C(=O)[C@@H]1CCCN1C(=O)[C@@H]1CCCN1C(=O)[C@@H]1CCCN1C(=O)[C@H](CC(C)C)NC(=O)[C@@H]1CCCN1C(=O)[C@H](CC(C)C)NC(=O)[C@H](C)N)C(=O)O [Peptide 9019.0174] | – | – | – | 8 | – | – | –
